Columns and labels:
[1] = Bioavailability in Han Wistar rat at […], iv and 5 mg/kg, po; type: ADME, organism-based; conditions: in vivo
Rattus norvegicus = test: Hepatic blood flow in Han Wistar rat at […], iv and 5 mg/kg, po; type: ADME, organism-based, Liver; conditions: in vivo
[2] = Plasma concentration in nude mouse at 100 mg/kg, po measured at 4 hrs; type: ADME, organism-based; set-up: dose 100 mg/kg, route oral
[3] = AUC (0 to 24 hrs) in nude mouse at 100 mg/kg, po; type: ADME, organism-based; set-up: time < 24 hr, dose 100 mg/kg, route oral; conditions: plasma
[4] = Plasma concentration in nude mouse at 100 mg/kg, po measured at 1 hr; type: ADME, organism-based; set-up: dose 100 mg/kg, route oral
[5] = Volume of distribution at steady state in Han Wistar rat at […], iv and 5 mg/kg, po; type: ADME, organism-based; conditions: in vivo, read-out: Vdss
[6] = Plasma concentration in nude mouse at 100 mg/kg, po measured at 24 hrs; type: ADME, organism-based; set-up: dose 100 mg/kg, route oral

bioavailability [1]: 65%
QH (Rattus norvegicus): 19%
concentration at 4 h [2]: 1900 nM
AUC(0-t) at 24 h [3]: 48.7 µM·h
concentration at 1 h [4]: 11000 nM
Vd [5]: 0.8 L/kg
concentration at 24 h [6]: 1800 nM
SMILES: CN(c1ccnc(Nc2cc(N3CCOCC3)cc(N3CCOCC3)c2)n1)c1cccc2[nH]ncc12

— ChEMBL document CHEMBL1268821, “Inhibitors of the tyrosine kinase EphB4. Part 3: identification of non-benzodioxole-based kinase inhibitors” (Bioorg Med Chem Lett, 2010)
